According to patent US8119661B2, “Piperidine derivatives and their use as muscarinic receptor modulators” (AstraZeneca AB, priority 2007, dated 2012):

Experiments:
[1] = molecular target: T1, cloned human M2 receptor (Homo sapiens, UniProt P08172); assay: hM2 receptor GTPγS binding; assay type: biochemical; settings: CHO membranes expressing hM2, [35S]GTPγS binding
T1 construct: purchased Perkin-Elmer RBHM2M; host or cells: CHO cell membranes
T1 sequence (P08172 1-466): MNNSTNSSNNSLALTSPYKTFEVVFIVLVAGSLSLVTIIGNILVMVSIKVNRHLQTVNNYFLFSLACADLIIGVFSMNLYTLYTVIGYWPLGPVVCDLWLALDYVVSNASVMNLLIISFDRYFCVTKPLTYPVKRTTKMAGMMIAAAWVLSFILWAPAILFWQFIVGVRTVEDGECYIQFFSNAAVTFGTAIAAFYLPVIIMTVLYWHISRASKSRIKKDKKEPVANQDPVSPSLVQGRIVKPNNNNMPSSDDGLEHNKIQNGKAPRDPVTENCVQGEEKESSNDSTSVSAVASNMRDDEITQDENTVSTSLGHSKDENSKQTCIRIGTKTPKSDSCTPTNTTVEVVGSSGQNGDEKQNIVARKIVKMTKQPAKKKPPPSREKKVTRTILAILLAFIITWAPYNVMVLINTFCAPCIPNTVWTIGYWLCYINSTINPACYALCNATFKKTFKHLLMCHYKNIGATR
Procedure: Membranes produced from Chinese hamster ovary cells (CHO) expressing the cloned human M2 receptor (human Muscarinic receptor subtype 2, gene bank access NM_000739), are obtained from Perkin-Elmer (RBHM2M). The membranes are thawed at 37° C., passed 3 times through a 23-gauge blunt-end needle, diluted in the GTPγS binding buffer (50 mM Hepes, 20 mM NaOH, 100 mM NaCl, 1 mM EDTA, 5 mM MgCl2, pH 7.4, 100 μM DTT). The EC50, IC50 and Emax of the compounds of the invention are evaluated from 10-point dose-response curves (three fold concentration range) done in 60 μl in 384-well non-specific binding surface plate (Corning). Ten microliters from the dose-response curves plate (5× concentration) are transferred to another 384 well plate containing 25 μl of the following: 5 μg of hM2 membranes, 500 μg of Flashblue beads (Perkin-Elmer) and GDP 25 μM. An additional 15 μl containing 3.3× (60,000 dpm) of GTPγ^35S (0.4 nM final) are added to the wells resulting in a total well volume of 50 μl. Basal and maximal stimulated [^35S]GTPγS binding are determined in absence and presence of 30 μM final of acetylcholine agonist. The membranes/beads mix are pre-incubated for 15 minutes at room temperature with 25 μM GDP prior to distribution in plates (12.5 μM final). The reversal of acetylcholine-induced stimulation (2 μM final) of [^35S]GTPγS binding is used to assay the antagonist properties (IC50) of the compounds. The plates are incubated for 60 minutes at room temperature then centrifuged at 400 rpm for 5 minutes. The radioactivity (cpm) is counted in a Trilux (Perkin-Elmer).
Values of EC50, IC50 and Emax are obtained using sigmoidal fits of a non-linear curve-fitting program (XLfit version 4.2.2 Excel add-in version 4.2.2 build 18 math 1Q version 2.1.2 build 18) of percent stimulated [^35S]GTPγS binding vs. log(molar ligand). All pEC50 and pIC50 values are reported as arithmetic means±standard error of mean of ‘n’ independent experiments.

[2] = molecular target: T2, hM3 (human Muscarinic receptor subtype 3) (Homo sapiens, UniProt P20309); assay: Human M3 calcium mobilization FLIPR assay; assay type: cell-based; settings: CHO cells expressing hM3, intracellular Ca2+ release
T2 construct: expressed in transfected cells; host or cells: CHO cells (Chinese hamster ovary cells, ATCC)
Procedure: The compound activity in the present invention (EC50 or IC50) is measured using a 384 plate-based imaging assay that monitors drug induced intracellular Ca^2+ release in whole cells. Activation of hM1 (human Muscarinic receptor subtype 1, gene bank access NM_000738), rM1 (rat Muscarinic receptor subtype 1, gene bank access NM_080773), hM3 (human Muscarinic receptor subtype 3, gene bank access NM_000740NM_000740) and hM5 (human Muscarinic receptor subtype 5, gene bank access NM_0121258), receptors expressed in CHO cells (Chinese hamster ovary cells, ATCC) is quantified in a Molecular Devices FLIPR II™ instrument as an increase in fluorescent signal. Inhibition of hM3 and hM5 by compounds is determined by the decrease in fluorescent signal in response to 2 nM acetylcholine activation.
Prior to experiment, the cell culture medium is removed from the plates by inversion. […] Plates are incubated at 37° C. for 60 minutes prior to start the experiment. The incubation is terminated by washing the cells four times in assay buffer, leaving a residual 25 μl buffer per well. Cell plates are then transferred to the FLIPR, ready for compound additions.
The day of experiment, acetylcholine and compounds are diluted in assay buffer in three-fold concentration range (10 points serial dilution) for addition by FLIPR instrument. For all calcium assays, a baseline reading is taken for 10 seconds followed by the addition of 12.5 μl of compounds, resulting in a total well volume of 37.5 μl. Data is collected every second for 60 pictures and then every 6 seconds for 20 pictures prior to the addition of agonist. For hM3 and hM5, before agonist addition, a second baseline reading is taken for 10 seconds followed by the addition of 12.5 μl of agonist or buffer, producing a final volume of 50 μl. After agonist stimulation, the FLIPR continues to collect data every second for 60 pictures and then every 6 seconds for 20 pictures. The fluorescence emission is read using filter 1 (emission 510-570 nm) by the FLIPR on board CCD camera.
Calcium mobilization output data are calculated as the maximal relative fluorescence unit (RFU) minus the minimal value for both compound and agonist reading frame (except for hM1 and rM1 using only the maximal RFU). Data are analyzed using sigmoidal fits of a non-linear curve-fitting program (XLfit version 4.2.2 Excel add-in version 4.2.2 build 18 math 1Q version 2.1.2 build 18). All pEC50 and pIC50 values are reported as arithmetic means±standard error of mean of ‘n’ independent experiments.

T2 sequence (P20309 whole entry): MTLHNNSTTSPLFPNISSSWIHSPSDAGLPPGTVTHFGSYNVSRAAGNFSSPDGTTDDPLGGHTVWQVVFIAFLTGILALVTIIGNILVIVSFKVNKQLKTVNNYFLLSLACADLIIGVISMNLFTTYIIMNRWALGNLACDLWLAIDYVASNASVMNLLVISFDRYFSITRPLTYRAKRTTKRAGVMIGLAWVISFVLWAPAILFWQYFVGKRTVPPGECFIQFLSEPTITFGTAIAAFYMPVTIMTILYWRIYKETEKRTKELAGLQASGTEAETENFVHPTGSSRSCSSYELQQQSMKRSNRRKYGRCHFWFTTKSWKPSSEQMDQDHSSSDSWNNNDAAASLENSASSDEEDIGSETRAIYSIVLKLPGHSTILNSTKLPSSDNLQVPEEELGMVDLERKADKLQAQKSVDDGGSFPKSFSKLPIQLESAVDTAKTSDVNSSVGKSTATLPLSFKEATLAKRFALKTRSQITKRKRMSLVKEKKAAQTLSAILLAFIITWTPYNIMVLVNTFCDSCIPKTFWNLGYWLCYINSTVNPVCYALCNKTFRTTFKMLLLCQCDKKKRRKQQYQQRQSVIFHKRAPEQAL

| EC50 [1] [nM] | EC50 [2] [nM] | Structure (SMILES) |
| --- | --- | --- |
| 2300 | > 40000 | CCOC(=O)N1CCC(C)(N2CCC(N3C(=O)N[C@H]4CCCC[C@@H]43)CC2)C1 (mixture of isomers) [Example 07, Ethyl 3-[4-[(3aS,7aS)-2-oxo-3a,4,5,6,7,7a-hexahydro-3H-benzoimidazol-1-yl]-1-piperidyl]-3-methyl-pyrrolidine-1-carboxylate] |
| > 15000 | – | CC1(N2CCC(N3C(=O)N[C@H]4CCCC[C@@H]43)CC2)CCN(C(=O)OCCF)C1 (mixture of isomers) [Example 08, 2-fluoroethyl 3-[4-[(3aS,7aS)-2-oxo-3a,4,5,6,7,7a-hexahydro-3H-benzoimidazol-1-yl]-1-piperidyl]-3-methyl-pyrrolidine-1-carboxylate] |
| > 1000 | > 40000 | C#CCOC(=O)N1CCC(C)(N2CCC(N3C(=O)N[C@H]4CCCC[C@@H]43)CC2)C1 (mixture of isomers) [Example 09, Prop-2-ynyl 3-[4-[(3aS,7aS)-2-oxo-3a,4,5,6,7,7a-hexahydro-3H-benzoimidazol-1-yl]-1-piperidyl]-3-methyl-pyrrolidine-1-carboxylate] |
| > 4000 | – | COC(=O)N1CCC(C)(N2CCC(N3C(=O)N[C@H]4CCCC[C@@H]43)CC2)C1 (mixture of isomers) [Example 10, Methyl 3-[4-[(3aS,7aS)-2-oxo-3a,4,5,6,7,7a-hexahydro-3H-benzoimidazol-1-yl]-1-piperidyl]-3-methyl-pyrrolidine-1-carboxylate] |
| 2900 | – | CCOC(=O)N1CCC(C)(N2CCC(N3C(=O)N[C@@H]4CCCC[C@H]43)CC2)C1 (mixture of isomers) [Example 11, Ethyl 3-[4-[(3aR,7aR)-2-oxo-3a,4,5,6,7,7a-hexahydro-3H-benzoimidazol-1-yl]-1-piperidyl]-3-methyl-pyrrolidine-1-carboxylate] |
| 130 | > 40000 | CCOC(=O)N1CCC(C)(N2CCC(N3C(=O)N[C@@H]4CCCC[C@@H]43)CC2)CC1 (relative stereo) [Example 12, Ethyl 4-[4-[(cis)-2-oxo-3a,4,5,6,7,7a-hexahydro-3H-benzoimidazol-1-yl]-1-piperidyl]-4-methyl-piperidine-1-carboxylate] |
| > 30000 | > 40000 | CC(C)OC(=O)N1CCC(C)(N2CCC(N3C(=O)N[C@@H]4CCCC[C@@H]43)CC2)CC1 (relative stereo) [Example 13, Propan-2-yl 4-[4-[(cis)-2-oxo-3a,4,5,6,7,7a-hexahydro-3H-benzoimidazol-1-yl]-1-piperidyl]-4-methyl-piperidine-1-carboxylate] |
| 204 | – | CC#CCOC(=O)N1CCC(C)(N2CCC(N3C(=O)N[C@H]4CCCC[C@@H]43)CC2)C1 (single isomer, unassigned) [Example 19] |
| 4870 | > 22100 | CCOC(=O)N1CCC(C)(N2CCC(N3C(=O)N[C@H]4CCCC[C@@H]43)CC2)C1 (single isomer, unassigned) [Example 21] |
| 1170 | > 25600 | CCOC(=O)N1CCC(C)(N2CCC(N3C(=O)N[C@H]4CCCC[C@@H]43)CC2)C1 (single isomer, unassigned) [Example 22] |
| 45 | 1400 | CCOC(=O)N1CCC(C)(N2CCC(N3C(=O)N[C@H]4CCCC[C@@H]43)CC2)CC1 [Example 01, Ethyl 4-[4-[(3aS,7aS)-2-oxo-3a,4,5,6,7,7a-hexahydro-3H-benzoimidazol-1-yl]-1-piperidyl]-4-methyl-piperidine-1-carboxylate] |
| > 1600 | > 40000 | CC1(N2CCC(N3C(=O)N[C@H]4CCCC[C@@H]43)CC2)CCN(C(=O)C2CC2)CC1 [Example 03, (3aS,7aS)-1-[1-[1-(cyclopropanecarbonyl)-4-methyl-4-piperidyl]-4-piperidyl]-3a,4,5,6,7,7a-hexahydro-3H-benzoimidazol-2-one] |
| 480 | > 4200 | CCOC(=O)N1CCC(C)(N2CCC(N3C(=O)N[C@@H]4CCCC[C@H]43)CC2)CC1 [Example 04, Ethyl 4-[4-[(3aR,7aR)-2-oxo-3a,4,5,6,7,7a-hexahydro-3H-benzoimidazol-1-yl]-1-piperidyl]-4-methyl-piperidine-1-carboxylate] |
| > 14000 | > 49000 | CC(C)OC(=O)N1CCC(C)(N2CCC(N3C(=O)N[C@@H]4CCCC[C@H]43)CC2)CC1 [Example 05, Propan-2-yl 4-[4-[(3aR,7aR)-2-oxo-3a,4,5,6,7,7a-hexahydro-3H-benzoimidazol-1-yl]-1-piperidyl]-4-methyl-piperidine-1-carboxylate] |
| > 30000 | > 49000 | CC1(N2CCC(N3C(=O)N[C@@H]4CCCC[C@H]43)CC2)CCN(C(=O)C2CC2)CC1 [Example 06, (3aR,7aR)-1-[1-[1-(cyclopropanecarbonyl)-4-methyl-4-piperidyl]-4-piperidyl]-3a,4,5,6,7,7a-hexahydro-3H-benzoimidazol-2-one] |
| > 30000 | > 40000 | CC(C)OC(=O)N1CCC(C)(N2CCC(N3C(=O)C[C@H]4CCCC[C@@H]43)CC2)CC1 [Example 14, Propan-2-yl 4-[4-[(3aR,7aS)-2-oxo-3a,4,5,6,7,7a-hexahydro-3H-indol-1-yl]-1-piperidyl]-4-methyl-piperidine-1-carboxylate] |
| 48 | – | C#CCOC(=O)N1CCC(C)(N2CCC(N3C(=O)N[C@H]4CCCC[C@@H]43)CC2)CC1 [Example 17, prop-2-ynyl 4-[4-[(3aS,7aS)-2-oxo-3a,4,5,6,7,7a-hexahydro-3H-benzimidazol-1-yl]-1-piperidyl]-4-methyl-piperidine-1-carboxylate] |

| Structure (SMILES) | EC50 [1] [nM] | EC50 [2] [nM] |
| --- | --- | --- |
| CCOC(=O)N1CCC(C)(N2CCC(N3C(=O)C[C@@H]4CCCC[C@H]43)CC2)C1 (stereo in doubt) [Example 23, Ethyl 3-[4-[(3aS,7aR)-2-oxo-3a,4,5,6,7,7a-hexahydro-3H-indol-1-yl]-1-piperidyl]-3-methyl-pyrrolidine-1-carboxylate] | 2680 | > 120000 |
| CC(C)OC(=O)N1CCC(C)(N2CCC(N3C(=O)N[C@H]4CCCC[C@@H]43)CC2)CC1 [Example 02, Propan-2-yl 4-[4-[(3aS,7aS)-2-oxo-3a,4,5,6,7,7a-hexahydro-3H-benzoimidazol-1-yl]-1-piperidyl]-4-methyl-piperidine-1-carboxylate] | > 200 | > 40000 |
